# Test results: patent US20050288323A1, “Octahydro-indolizine and quinolizine and hexahydro-pyrrolizine” (priority 2000, published 2005)
# pKi: −log10 of the molar value.
# Tested on: not given
# Assay: not given
# Settings: not given
row,Compound,melting point [°C]
1,Brc1cccc([C@H]2CC[C@H]3CCCCN32)c1 (racemic),195 to 198

# Target: T1, human histamine H3 receptor (Homo sapiens, UniProt Q9Y5N1)
# T1 construct: One microgram of supercoiled H3 receptor cDNA was added to the cells and mixed; expressed in transfected cells; membranes
# T1 sequence (Q9Y5N1 whole entry): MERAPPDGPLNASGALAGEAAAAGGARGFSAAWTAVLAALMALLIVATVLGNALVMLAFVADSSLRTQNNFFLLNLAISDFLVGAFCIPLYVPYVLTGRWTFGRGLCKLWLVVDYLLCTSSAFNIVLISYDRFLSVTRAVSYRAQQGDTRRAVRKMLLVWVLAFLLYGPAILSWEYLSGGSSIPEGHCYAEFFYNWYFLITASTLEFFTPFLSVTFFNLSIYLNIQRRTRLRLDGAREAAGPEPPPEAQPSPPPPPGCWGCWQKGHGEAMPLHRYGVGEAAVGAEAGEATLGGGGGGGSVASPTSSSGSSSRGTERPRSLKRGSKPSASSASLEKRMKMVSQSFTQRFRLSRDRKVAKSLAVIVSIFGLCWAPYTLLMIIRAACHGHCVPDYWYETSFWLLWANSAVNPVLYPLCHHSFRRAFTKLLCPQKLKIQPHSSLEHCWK
# Assay: [3H]-N-methylhistamine binding
# Settings: Table 1; [3H]-N-methylhistamine binding
# Description: Thus in the present invention receptor binding was determined using the human histamine H3 receptor (See Lovenberg et al Mol. Pharmacol. 1999, 1107). Screening using the human receptor is particularly important for the identification of new therapies for the treatment of human disease. Conventional binding assays for example are determined using rat synaptosomes (Garbarg et al J. Pharmacol. Exp. Ther. 1992, 263, 304), rat cortical membranes (West et al Mol. Pharmacol. 1990, 610), and guinea pig brain (Korte et al Biochem. Biophys. Res. Commun. 1990, 978). Only limited studies have been performed previously using human tissue but these allude to significant differences in the pharmacology of rodent and primate receptors (West et al Eur. J. Pharmacol. 1999, 233).
# Transfection of Cells with Human Histamine Receptor
# A 10 cm tissue culture dish with a confluent monolayer of SK-N-MC cells was split two days prior to transfection. Using sterile technique the media was removed and the cells were detached from the dish by the addition of trypsin. One fifth of the cells were then placed onto a new 10 cm dish. Cells were grown in a 37° C. incubator with 5% CO2 in Minimal Essential Media Eagle with 10% Fetal Bovine Serum. After two days cells were approximately 80% confluent. These were removed from the dish with trypsin and pelleted in a clinical centrifuge. The pellet was then re-suspended in 400 μL complete media and transferred to an electroporation cuvette with a 0.4 cm gap between the electrodes (Bio-Rad #165-2088). One microgram of supercoiled H3 receptor cDNA was added to the cells and mixed. The voltage for the electroporation was set at 0.25 kV, the capacitance was set at 960 μF. After electroporation the cells were diluted into 10 mL complete media and plated onto four 10 cm dishes. Because of the variability in the efficiency of electroporation, four different concentrations of cells were plated. The ratios used were; 1:20, 1:10, 1:5, with the remainder of the cells being added to the fourth dish. The cells were allowed to recover for 24 hours before adding the selection media (complete media with 600 μg/mL G418). After 10 days dishes were analyzed for surviving colonies of cells. Dishes with well isolated colonies were used. Cells from individual colonies were isolated and tested. SK-N-MC cells were used because they give efficient coupling for inhibition of adenylate cyclase. The clones that gave the most robust inhibition of adenylate cyclase in response to histamine were used for further study.
# [^3H]-N-methylhistamine Binding
# Cell pellets from histamine H3 receptor-expressing SK-N-MC cells were homogenized in 20 mM TrisHCl/0.5 mM EDTA. Supernatants from a 800 g spin were collected, recentrifuged at 30,000 g for 30 minutes. Pellets were re-homogenized in 50 mM Tris/5 mM EDTA (pH 7.4). Membranes were incubated with 0.8 nM [^3H]-N-methylhistamine plus/minus test compounds for 45 min at 25° C. and harvested by rapid filtration over GF/C glass fiber filters (pretreated with 0.3% polyethylenimine) followed by four washes with ice cold buffer. Filters were dried, added to 4 mL scintillation cocktail and then counted on a liquid scintillation counter. Non-specific binding was defined with 10 μM histamine. The pKi values were calculated based on a Kd of 800 pM and a ligand concentration ([L]) of 800 pM according to the formula: Ki=(IC50)/(1+([L]/(Kd))
row,Compound,pKi
1,Brc1ccc([C@@H]2CC[C@H]3CCCCN32)cc1 (racemic) [Example 2],6.00
2,c1ccc(Oc2ccc([C@H]3CC[C@H]4CCCCN43)cc2)cc1 (racemic) [Example 11],6.40
3,"CN(C)CCCOc1ccc([C@H]2CC[C@H]3CCCCN32)cc1 (racemic) [Example 17, Dimethyl-{3-[4-(octahydro-indolizin-3-yl)-phenoxy]-propyl}-amine]",8.00

# Same assay, conditions: Table 2; [3H]-N-methylhistamine binding
row,Compound,pKi
1,c1ccc2[nH]c(Oc3ccc([C@H]4CC[C@H]5CCCCN54)cc3)nc2c1 (racemic) [Example 30],6.31
2,N#Cc1ccc(Sc2ccc([C@H]3CC[C@H]4CCCCN43)cc2)cc1 (racemic) [Example 38],6.25

# Same assay, conditions: Table 3; [3H]-N-methylhistamine binding
row,Compound,pKi
1,c1cc(-c2ccc([C@H]3CC[C@H]4CCCCN43)cc2)cs1 (racemic) [Example 49],6.30

# Same assay, conditions: Table 5; [3H]-N-methylhistamine binding
row,Compound,pKi
1,c1cc(CNc2ccc([C@H]3CC[C@H]4CCCCN43)cc2)cs1 (racemic) [Example 129],6.19
2,c1cncc(CNc2ccc([C@H]3CC[C@H]4CCCCN43)cc2)c1 (racemic) [Example 127],6.23
3,c1c[nH]c(CNc2ccc([C@H]3CC[C@H]4CCCCN43)cc2)n1 (racemic) [Example 134],5.44
4,c1ccc(CNc2ccc([C@H]3CC[C@H]4CCCCN43)cc2)cc1 (racemic) [Example 132],6.29

# Same assay, conditions: [3H]-N-methylhistamine 0.8 nM, membranes of H3 receptor-expressing SK-N-MC cells
row,Compound,pKi
1,"FC(F)(F)Oc1ccc(-c2ccc([C@H]3CC[C@H]4CCCCN43)cc2)cc1 (relative stereo) [Example 47, trans-3-[4-(4-Trifluromethoxyphenyl)phenyl]octahydroindolizine]",5.91
2,"N=C1NC(=N)/C(=C/c2ccc([C@H]3CC[C@H]4CCCCN43)cc2)S1 (relative stereo) [Example 46, trans-3-[4-(4-Methylene-1,3-thiazolidine-2,4-diimine)phenyl]octahydroindolizine]",6.48
3,"c1cc([C@@H]2CC[C@@H]3CCCCN32)ccc1NC1CCNCC1 (relative stereo) [Example 101, trans-3-[4-(4-Piperidinylamino)phenyl]octahydroindolizine]",6.50
4,"O=[N+]([O-])c1ccc(Oc2ccc([C@H]3CC[C@H]4CCCCN43)cc2)cc1 (racemic) [Example 77, trans-3-[4-(4-Nitrophenoxy)phenyl]octahydroindolizine]",5.81
5,"C=CC(=O)N(C)c1ccc([C@@H]2CC[C@@H]3CCCCN32)cc1 (relative stereo) [Example 108, N-Methyl-N-[4-(trans-Octahydro-3-indolizinyl)phenyl]propenamide]",5.56
6,"CN(CCCCCN1CCCCC1)c1ccc([C@@H]2CC[C@@H]3CCCCN32)cc1 (relative stereo) [Example 114, trans-3-[4-(N-Methyl-N-5-piperidylpentylamino)phenyl]octahydroindolizine]",8.05
7,"O=[N+]([O-])c1ccc(Sc2ccc([C@@H]3CCC[C@@H]4CCCN43)cc2)cc1 (racemic) [Example 27, 5-[4-(4-Nitrophenylthio)phenyl]octahydroindolizine]",6.49
8,trans-3-[4-(Vinylsulfonylamino)phenyl]octahydroindolizine [Example 119],< 5.30
9,"O=C(c1ccc(Cl)cc1)c1ccc([C@H]2CC[C@H]3CCCCN32)cc1 (racemic) [Example 124, trans-3-{4-[(4-Chlorophenyl)methan-1-oxo]phenyl}octahydroindolizine]",6.43
10,"c1cc(Sc2ccc([C@@H]3CCC[C@@H]4CCCN43)cc2)ccn1 (racemic) [Example 26, 5-[4-(4-Pyridinylthio)phenyl]octahydroindolizine]",7.46
11,"CN(C)CCCOc1ccc([C@H]2CC[C@H]3CCCCN32)cc1 (racemic) [Example 17, Dimethyl-{3-[4-(octahydro-indolizin-3-yl)-phenoxy]-propyl}-amine]",8.02
12,"N=C(N)N1CCCCC1CCOc1ccc([C@H]2CC[C@H]3CCCCN32)cc1 (mixture of isomers) [Example 90, trans-3-{4-[2,2′-(N-Amidinopiperidinyl)ethoxy]phenyl}octahydroindolizine]",7.10
13,c1cc([C@@H]2CCC[C@@H]3CCCN32)ccc1OCCCCN1CCCCC1 (racemic) [Example 62],9.15
14,"CS(=O)(=O)N1CCC(Nc2ccc([C@H]3CC[C@H]4CCCCN43)cc2)CC1 (racemic) [Example 102, trans-3-[4-(N-Methylsulfonyl-4-aminopiperidine)phenyl]octahydroindolizine]",6.61
15,"c1cc([C@@H]2CCC[C@@H]3CCCN32)ccc1OCCCN1CCCCC1 (racemic) [Example 64, 5-[4-(3-Piperidinylpropoxy)phenyl]octahydroindolizine]",9.15
16,"C(=C\c1ccc([C@H]2CC[C@H]3CCCCN32)cc1)/c1ccncc1 (racemic) [Example 73, trans-3-[4-(4-Pyridinylethenyl)phenyl]octahydroindolizine]",7.19
17,"CN(c1ccc([C@@H]2CC[C@@H]3CCCCN32)cc1)S(=O)(=O)CCN1CCCCC1 (relative stereo) [Example 121, trans-3-{4-[(2-Piperidylethyl)sulfonyl-N-methylamino]phenyl}octahydroindolizine]",7.72
18,"O=C(CCCCN1CCCCC1)Nc1ccc([C@@H]2CC[C@@H]3CCCCN32)cc1 (relative stereo) [Example 112, trans-3-[4-(N-5-Piperidylpentanamido)phenyl]octahydroindolizine]",8.68
19,"c1cc([C@@H]2CC[C@@H]3CCCCN32)ccc1NCCCCCN1CCCCC1 (relative stereo) [Example 115, trans-3-[4-(N-5-Piperidylpentylamino)phenyl]octahydroindolizine]",9.15
20,"CN1CCCC1CCOc1ccc([C@H]2CC[C@H]3CCCCN32)cc1 (mixture of isomers) [Example 91, trans-3-{4-[2,2′-(N-Methylpyrrolidinyl)ethoxy]phenyl}octahydroindolizine]",8.70
21,O=Cc1ccc([C@H]2CC[C@H]3CCCCN32)cc1 (racemic) [trans-3-(4-Formylphenyl)octahydroindolizine],6.23
22,"c1cc(Sc2ccc([C@@H]3CC[C@@H]4CCCCN43)cc2)ccn1 [Example 138, (S, S)-Octahydro-3-[4-(4-pyridinylthio)phenyl]indolizine]",7.00
23,"c1cc([C@H]2CC[C@H]3CCCCN32)ccc1OCCC1CCCCN1 (stereo partly drawn) [Example 86, trans-3-[4-(2,2′-piperidinylethoxy)phenyl]octahydroindolizine]",7.05
24,"CCN(c1ccc([C@H]2CC[C@H]3CCCCN32)cc1)C1CCN(S(C)(=O)=O)CC1 (racemic) [Example 104, trans-3-[4-(N-Ethyl-N-4-N-methylsufonylpiperidinylamino)phenyl]octahydroindolizine]",5.75
25,"Oc1ccc([C@@H]2CCC[C@@H]3CCCN32)cc1 (racemic) [Example 60, 5-(4-Hydroxyphenyl)octahydroindolizine]",5.86
26,"ClCCCCOc1ccc([C@@H]2CCC[C@@H]3CCCN32)cc1 (racemic) [Example 61, 5-[4-(4-Chlorobutanoxy)phenyl]octahydroindolizine]",6.56
